{
  "source": "patent US20260125357A1",
  "about": "“LACTATE ENHANCING COMPOUNDS AND USES THEREOF” (GLIAPHARM SA, priority 2022, published 2026)",
  "key": {"[1]": {"tested_on": "human iPSC-derived astrocytes", "assay": "Uptake of 2-DG in human iPSC-derived astrocytes", "type": "cell-based", "conditions": "treated for 1.5 hours", "description": "Astrocytes grown on 12-well plates and transfected with either scramble siRNA or GLUT1 siRNA were used. 1 day after having replaced transfection medium (DIV13), 2DG uptake was measured after treatment for 30 min with Vehicle (0.1% DMSO) or with the compound of the invention (1) to (5) (concentrations of 0.1 to 10 μM). During treatment, 1 mM 2DG was added to the medium for assessment of 2DG uptake. At the end of the stimulation, medium was removed and replaced with 150 μl NaOH 0.1M, and stored at −20° C. After thawing, cells were collected using cell scraper and heated for 40 min at 85° C. Then, 150 ul HCl 0.1M and TAE buffer 200 mM was added to each condition. 20 μl were added to a transparent 96-well plate and 2DG was quantified by addition of a reaction solution containing 50 mM TAE, 50 mM KCl, 0.02% BSA, 0.1 mM NADP, 0.2 U/ml diaphorase, 2 mM resazurin and 20 U/ml glucose-6-phosphate dehydrogenase. Concentration of 2DG in samples were calculated by comparison with standard curve of deoxy-glucose-6-phophate ranging from 0 to 1 nmoles.\nHuman iPSC-derived astrocytes were purchased from NCardia (NCyte Astrocytes) and were plated at a density of ˜10′000 cells/cm^2 in 96-well or 12-well plates, according to the manufacturer's instructions and using the recommended media. […] Uptake of 2-DG and release of lactate were quantified as described previously."}, "[2]": {"tested_on": "neurons in astrocyte-neuron co-culture", "assay": "MTT mitochondrial activity in neurons from astrocyte-neuron co-cultures", "type": "cell-based, mouse", "conditions": "10 μM, 2 hours", "description": "Primary mouse neuronal cultures were obtained from 18-day OF1 mouse embryos (Charles River Laboratories). Briefly, cortices were isolated and minced in small pieces under a dissecting microscope. The cells were incubated for 30 min at 37° C. in a solution containing 20 U/ml papain, 1 mM L-cysteine and 10 kU/ml DNase I. After dissociation, papain activity was stopped by the addition of fetal calf serum (FCS). Single-cell suspension was then obtained by mechanical dissociation, which consisted in cells trituration in a Neurobasal+B-27+Glutamax medium. The cells were seeded at an average density of ˜1.5×10^5 cells/cm^2 on poly-D-lysine coated 12-well culture plates and grown in Neurobasal medium supplemented with B-27 and Glutamax at 37° C. in a humidified atmosphere containing 5% CO2/95% air. Neurons were used at DIV10. […]\nNeuron pure culture or astrocyte-neuron co-cultures were treated for 2 hours with compound (2) at 10 μM in a solution composed of Neurobasal complemented with B-27 and Glutamax, as well as 0.25 mg/ml thiazol blue tetrazolium bromide (MTT). […] After stimulation, empty coverslips (neuron pure cultures) or astrocytes on coverslips (astrocyte-neuron co-cultures) were separated from neurons, medium was removed and the amount of reduced MTT, i.e formazan, solubilized in DMSO (50 μl/well) was determined using a spectrophotometer (absorbance of 570 nm)."}, "[3]": {"tested_on": "old C57Bl/6J wild-type mice", "assay": "Morris Water Maze memory in old (16-month-old) wild-type mice", "type": "in vivo, mouse", "conditions": "1 day after training", "description": "Adult male C57Bl/6J wild-type from 3 month of age (young adults) to 16 month of age (old adults) are used (Charles River). Animals are housed in groups of 3-5 in polypropylene cages (30×40×15 cm) with wire mesh top in a temperature (22±2° C.) and humidity (55±15%) controlled environment on a 12-hour light cycle (07.00-19.00 h lights on). The samples (Vehicle or compounds of the invention) are administered per os (gavage) in a solution made of water supplemented with 0.4% hydroxypropyl methylcellulose (HPMC) Methocel 4 KM (w/v) and 0.25% Tween-20 (v/v), as previously described (Thackaberry et al., 2010, Toxicol Sci., 117(2):485-92). Memory of young adults treated with Vehicle or Old adults treated with Vehicle or compound (1) at 10 mg/kg or 30 mg/kg is tested in the Morris Water Maze, as described below. Treatment is administered at each day of training, 30 minutes before the first training session. No treatment is administered during memory retention test.\nMorris Water Maze (MWM), a well-established spatial and contextual memory test, will be used. […] A number of parameters including the latency to find the platform, time spent around the platform, path efficiency, % time spent in each quadrant is recorded, using automated tracking software (Ethovision). The type of exploration (direct, random, scan of the area) is also recorded. […]"}, "[4]": {"tested_on": "human iPSC-derived astrocytes", "assay": "Release of lactate from human iPSC-derived astrocytes", "type": "cell-based", "conditions": "treated for 1.5 hours", "description": "Secretion of L-lactate was measured in the extracellular medium of 96-well plated astrocytes after 90 min stimulation (at 37° C., in 5% CO2/95% air conditions) with Vehicle (DMSO), the compounds of the invention (100 nM to 100 μM) or positive control. […] Stimulation medium was composed of D5030 medium complemented with 5 mM D-glucose and 44 mM sodium bicarbonate, pH 7.2. To quantify lactate concentrations in the extracellular medium, 200 μl of a 0.2M Glycine-semicarbazide buffer (pH 10) containing 3 mM NAD and 14 U/ml LDH was added to each well of a 96-well plate containing 30 μl aliquots of extracellular medium. Samples were incubated at 37° C. for 1 h. Fluorescence intensity (340 nm excitation/450 nm emission), which represents the amount of NADH produced, was measured, and lactate concentration values were determined relative to a standard curve of L-lactate concentrations.\nHuman iPSC-derived astrocytes were purchased from NCardia (NCyte Astrocytes) and were plated at a density of ˜10′000 cells/cm^2 in 96-well or 12-well plates, according to the manufacturer's instructions and using the recommended media. Experiments were performed at 7 days in vitro. Cells were treated for 1.5 hours with compound (2). Uptake of 2-DG and release of lactate were quantified as described previously."}},
  "data": [
    {"smiles": "COc1cc2ccnc(Nc3ccc(S(C)(=O)=O)cc3)c2cc1OC", "note": "[Compound 2, 6,7-dimethoxy-N-(4-methylsulfonylphenyl)isoquinolin-1-amine]", "values": [
      {"measurement": "uptake of 2-DG", "setting": "[1]", "result": "increased uptake of 2-DG"},
      {"measurement": "mitochondrial activity of neurons (MTT)", "setting": "[2]", "result": "enhances mitochondrial activity of neurons in astrocyte-neuron co-culture"},
      {"measurement": "memory in the Morris Water Maze", "setting": "[3]; 10 mg/kg per os", "result": "significant increase of memory"},
      {"measurement": "memory in the Morris Water Maze", "setting": "[3]; 30 mg/kg per os", "result": "significant increase of memory"},
      {"measurement": "release of lactate", "setting": "[4]", "result": "increased"}
    ]}
  ]
}
